Assay results from ChEMBL document CHEMBL5715954, “Silencing c-Myc translation as a therapeutic strategy through targeting PI3Kδ and CK1ε in hematological malignancies” (Blood, 2017).

Tests used:
Parameters in all cases: scale not given: the % may be the effect or the level left
[1] = biological target: Serine/threonine-protein kinase B-raf (Homo sapiens) (UniProt P15056); test: Inhibition of human BRAF assessed as enzyme activity at 1 uM using MEK1 (K97R) as substrate preincubated for 20 mins followed by [gamma-33P]-ATP addition and measured after 120 mins by radiometric Hot-SpotSM Kinase assay relative to control
[2] = biological target: Focal adhesion kinase 1 (Homo sapiens) (UniProt Q05397); test: Inhibition of human FAK assessed as enzyme activity at 1 uM using poly[Glu:Tyr] (4:1) as substrate preincubated for 20 mins followed by [gamma-33P]-ATP addition and measured after 120 mins by radiometric Hot-SpotSM Kinase assay relative to control
[3] = biological target: T1, Tyrosine-protein kinase Mer (Homo sapiens) (UniProt Q12866); test: Inhibition of human c-MER assessed as enzyme activity at 1 uM using poly[Glu:Tyr] (4:1) as substrate preincubated for 20 mins followed by [gamma-33P]-ATP addition and measured after 120 mins by radiometric Hot-SpotSM Kinase assay relative to control
T1 sequence (whole entry): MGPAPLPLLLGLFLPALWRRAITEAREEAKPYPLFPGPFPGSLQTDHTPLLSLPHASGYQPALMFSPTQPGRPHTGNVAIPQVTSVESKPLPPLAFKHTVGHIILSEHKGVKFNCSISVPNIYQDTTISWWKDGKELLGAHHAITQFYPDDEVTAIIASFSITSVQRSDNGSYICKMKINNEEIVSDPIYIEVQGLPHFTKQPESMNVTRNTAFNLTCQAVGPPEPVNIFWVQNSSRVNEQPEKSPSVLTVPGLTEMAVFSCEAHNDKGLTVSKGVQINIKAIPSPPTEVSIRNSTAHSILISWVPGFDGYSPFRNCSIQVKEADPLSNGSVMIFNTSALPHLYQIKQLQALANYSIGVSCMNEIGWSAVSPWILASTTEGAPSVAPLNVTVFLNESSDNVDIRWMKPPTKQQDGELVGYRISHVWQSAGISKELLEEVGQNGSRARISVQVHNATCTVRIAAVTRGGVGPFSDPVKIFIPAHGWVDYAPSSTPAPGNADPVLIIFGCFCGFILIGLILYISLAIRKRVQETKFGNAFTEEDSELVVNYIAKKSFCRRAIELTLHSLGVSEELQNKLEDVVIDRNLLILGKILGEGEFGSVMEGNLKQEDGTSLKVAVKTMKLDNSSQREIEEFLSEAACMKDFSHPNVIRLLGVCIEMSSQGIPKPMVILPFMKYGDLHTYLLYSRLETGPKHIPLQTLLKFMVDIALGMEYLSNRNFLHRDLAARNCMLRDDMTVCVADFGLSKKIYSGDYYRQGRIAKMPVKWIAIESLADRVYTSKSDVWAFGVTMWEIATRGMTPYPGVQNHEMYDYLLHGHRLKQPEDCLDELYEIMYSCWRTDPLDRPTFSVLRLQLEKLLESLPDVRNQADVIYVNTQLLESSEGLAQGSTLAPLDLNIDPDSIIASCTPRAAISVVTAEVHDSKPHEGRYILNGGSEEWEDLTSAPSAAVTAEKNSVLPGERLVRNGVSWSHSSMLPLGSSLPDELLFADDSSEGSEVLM

[4] = biological target: T2, Serine/threonine-protein kinase Nek5 (Homo sapiens) (UniProt Q6P3R8); test: Inhibition of human NEK5 assessed as enzyme activity at 1 uM using myelin basic protein as substrate preincubated for 20 mins followed by [gamma-33P]-ATP addition and measured after 120 mins by radiometric Hot-SpotSM Kinase assay relative to control
T2 sequence (whole entry): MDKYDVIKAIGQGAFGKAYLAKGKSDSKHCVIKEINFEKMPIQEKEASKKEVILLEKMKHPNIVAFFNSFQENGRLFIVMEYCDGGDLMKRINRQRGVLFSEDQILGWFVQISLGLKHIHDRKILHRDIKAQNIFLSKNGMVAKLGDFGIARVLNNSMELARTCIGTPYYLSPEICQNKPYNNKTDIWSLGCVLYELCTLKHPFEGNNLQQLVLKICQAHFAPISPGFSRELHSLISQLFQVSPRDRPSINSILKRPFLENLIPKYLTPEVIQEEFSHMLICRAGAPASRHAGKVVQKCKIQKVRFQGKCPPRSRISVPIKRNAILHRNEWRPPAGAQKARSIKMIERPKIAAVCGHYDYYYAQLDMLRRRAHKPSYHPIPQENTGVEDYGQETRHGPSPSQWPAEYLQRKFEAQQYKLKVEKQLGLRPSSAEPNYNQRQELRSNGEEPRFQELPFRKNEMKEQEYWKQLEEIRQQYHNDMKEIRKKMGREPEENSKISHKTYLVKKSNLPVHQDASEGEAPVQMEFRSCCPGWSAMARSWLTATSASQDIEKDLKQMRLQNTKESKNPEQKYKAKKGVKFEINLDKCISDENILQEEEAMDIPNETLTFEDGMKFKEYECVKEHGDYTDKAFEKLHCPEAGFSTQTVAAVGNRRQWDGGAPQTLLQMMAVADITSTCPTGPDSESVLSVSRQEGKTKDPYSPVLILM

[5] = biological target: Serine/threonine-protein kinase PAK 4 (Homo sapiens) (UniProt O96013); test: Inhibition of human PAK4 assessed as enzyme activity at 1 uM using RRRLSFAEPG as substrate preincubated for 20 mins followed by [gamma-33P]-ATP addition and measured after 120 mins by radiometric Hot-SpotSM Kinase assay relative to control
[6] = biological target: G protein-coupled receptor kinase 4 (Homo sapiens) (UniProt P32298); test: Inhibition of human GRK4 assessed as enzyme activity at 1 uM using casein as substrate preincubated for 20 mins followed by [gamma-33P]-ATP addition and measured after 120 mins by radiometric Hot-SpotSM Kinase assay relative to control
[7] = biological target: Vascular endothelial growth factor receptor 2 (Homo sapiens) (UniProt P35968); test: Inhibition of human KDR assessed as enzyme activity at 1 uM using poly[Glu:Tyr] (4:1) as substrate preincubated for 20 mins followed by [gamma-33P]-ATP addition and measured after 120 mins by radiometric Hot-SpotSM Kinase assay relative to control
[8] = biological target: Non-receptor tyrosine-protein kinase TYK2 (Homo sapiens) (UniProt P29597); test: Inhibition of human TYK2 assessed as enzyme activity at 1 uM using KKSRGDYMTMQIG as substrate preincubated for 20 mins followed by [gamma-33P]-ATP addition and measured after 120 mins by radiometric Hot-SpotSM Kinase assay relative to control
Chain of Non-receptor tyrosine-protein kinase TYK2 (Homo sapiens) (P29597 whole entry): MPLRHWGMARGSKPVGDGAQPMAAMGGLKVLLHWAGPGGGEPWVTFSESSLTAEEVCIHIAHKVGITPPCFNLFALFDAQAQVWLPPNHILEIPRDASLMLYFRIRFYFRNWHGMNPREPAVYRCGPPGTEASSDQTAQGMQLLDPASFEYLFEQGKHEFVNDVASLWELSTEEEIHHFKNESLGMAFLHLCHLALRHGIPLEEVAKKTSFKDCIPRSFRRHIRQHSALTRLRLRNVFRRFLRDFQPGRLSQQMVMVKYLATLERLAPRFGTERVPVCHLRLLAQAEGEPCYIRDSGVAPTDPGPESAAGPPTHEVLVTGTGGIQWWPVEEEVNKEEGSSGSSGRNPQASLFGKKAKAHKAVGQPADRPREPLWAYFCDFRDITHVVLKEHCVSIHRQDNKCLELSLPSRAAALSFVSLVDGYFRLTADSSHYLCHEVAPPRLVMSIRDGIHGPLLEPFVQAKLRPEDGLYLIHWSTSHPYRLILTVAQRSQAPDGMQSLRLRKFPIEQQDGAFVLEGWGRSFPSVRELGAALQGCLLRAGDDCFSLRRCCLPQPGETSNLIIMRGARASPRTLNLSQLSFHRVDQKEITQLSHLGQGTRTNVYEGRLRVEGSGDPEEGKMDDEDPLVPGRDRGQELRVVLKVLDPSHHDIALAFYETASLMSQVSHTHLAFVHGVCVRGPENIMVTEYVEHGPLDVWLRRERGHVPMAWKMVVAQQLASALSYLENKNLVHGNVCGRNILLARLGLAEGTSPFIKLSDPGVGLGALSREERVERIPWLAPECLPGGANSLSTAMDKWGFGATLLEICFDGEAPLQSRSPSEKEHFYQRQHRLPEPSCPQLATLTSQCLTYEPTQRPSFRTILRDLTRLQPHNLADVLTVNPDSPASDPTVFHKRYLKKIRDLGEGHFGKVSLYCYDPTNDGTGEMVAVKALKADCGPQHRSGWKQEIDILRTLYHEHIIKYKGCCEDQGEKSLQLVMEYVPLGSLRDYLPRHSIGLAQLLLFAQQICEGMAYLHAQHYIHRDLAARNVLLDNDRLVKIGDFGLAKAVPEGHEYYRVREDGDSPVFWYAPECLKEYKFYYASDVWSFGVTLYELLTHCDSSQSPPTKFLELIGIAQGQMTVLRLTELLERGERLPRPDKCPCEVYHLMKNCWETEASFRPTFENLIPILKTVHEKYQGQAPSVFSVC

Chain of G protein-coupled receptor kinase 4 (Homo sapiens) (P32298 whole entry, looked up): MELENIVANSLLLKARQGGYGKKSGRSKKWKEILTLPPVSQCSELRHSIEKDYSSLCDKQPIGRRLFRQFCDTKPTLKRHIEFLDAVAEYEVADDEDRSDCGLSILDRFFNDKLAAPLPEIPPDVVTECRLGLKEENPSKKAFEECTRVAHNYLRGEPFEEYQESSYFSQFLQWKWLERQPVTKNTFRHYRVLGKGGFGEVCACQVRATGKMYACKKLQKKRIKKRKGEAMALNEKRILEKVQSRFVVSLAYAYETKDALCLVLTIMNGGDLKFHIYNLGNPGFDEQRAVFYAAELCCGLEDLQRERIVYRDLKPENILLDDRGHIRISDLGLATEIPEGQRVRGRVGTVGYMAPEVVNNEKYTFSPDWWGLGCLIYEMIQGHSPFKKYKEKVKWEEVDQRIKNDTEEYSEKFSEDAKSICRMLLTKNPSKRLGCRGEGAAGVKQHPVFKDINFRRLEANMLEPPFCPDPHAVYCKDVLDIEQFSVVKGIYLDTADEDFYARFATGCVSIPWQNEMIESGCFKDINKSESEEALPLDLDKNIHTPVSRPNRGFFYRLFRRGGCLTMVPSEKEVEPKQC
Chain of Serine/threonine-protein kinase PAK 4 (Homo sapiens) (O96013 whole entry, looked up): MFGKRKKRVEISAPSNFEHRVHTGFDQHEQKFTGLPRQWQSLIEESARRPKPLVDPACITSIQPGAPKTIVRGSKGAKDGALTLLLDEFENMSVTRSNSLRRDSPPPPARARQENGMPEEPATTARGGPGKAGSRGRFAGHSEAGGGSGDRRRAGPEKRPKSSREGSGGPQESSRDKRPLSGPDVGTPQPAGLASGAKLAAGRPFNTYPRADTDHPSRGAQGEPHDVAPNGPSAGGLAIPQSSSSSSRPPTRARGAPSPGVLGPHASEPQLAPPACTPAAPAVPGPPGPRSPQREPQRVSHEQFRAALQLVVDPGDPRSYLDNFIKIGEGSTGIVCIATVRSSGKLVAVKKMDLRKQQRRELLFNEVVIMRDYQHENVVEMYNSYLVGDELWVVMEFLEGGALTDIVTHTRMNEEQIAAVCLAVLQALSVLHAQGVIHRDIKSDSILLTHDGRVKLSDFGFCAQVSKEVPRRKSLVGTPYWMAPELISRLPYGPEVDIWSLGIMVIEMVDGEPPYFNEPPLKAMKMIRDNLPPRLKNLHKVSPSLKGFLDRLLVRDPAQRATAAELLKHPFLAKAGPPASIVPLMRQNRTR
Chain of Vascular endothelial growth factor receptor 2 (Homo sapiens) (P35968 whole entry): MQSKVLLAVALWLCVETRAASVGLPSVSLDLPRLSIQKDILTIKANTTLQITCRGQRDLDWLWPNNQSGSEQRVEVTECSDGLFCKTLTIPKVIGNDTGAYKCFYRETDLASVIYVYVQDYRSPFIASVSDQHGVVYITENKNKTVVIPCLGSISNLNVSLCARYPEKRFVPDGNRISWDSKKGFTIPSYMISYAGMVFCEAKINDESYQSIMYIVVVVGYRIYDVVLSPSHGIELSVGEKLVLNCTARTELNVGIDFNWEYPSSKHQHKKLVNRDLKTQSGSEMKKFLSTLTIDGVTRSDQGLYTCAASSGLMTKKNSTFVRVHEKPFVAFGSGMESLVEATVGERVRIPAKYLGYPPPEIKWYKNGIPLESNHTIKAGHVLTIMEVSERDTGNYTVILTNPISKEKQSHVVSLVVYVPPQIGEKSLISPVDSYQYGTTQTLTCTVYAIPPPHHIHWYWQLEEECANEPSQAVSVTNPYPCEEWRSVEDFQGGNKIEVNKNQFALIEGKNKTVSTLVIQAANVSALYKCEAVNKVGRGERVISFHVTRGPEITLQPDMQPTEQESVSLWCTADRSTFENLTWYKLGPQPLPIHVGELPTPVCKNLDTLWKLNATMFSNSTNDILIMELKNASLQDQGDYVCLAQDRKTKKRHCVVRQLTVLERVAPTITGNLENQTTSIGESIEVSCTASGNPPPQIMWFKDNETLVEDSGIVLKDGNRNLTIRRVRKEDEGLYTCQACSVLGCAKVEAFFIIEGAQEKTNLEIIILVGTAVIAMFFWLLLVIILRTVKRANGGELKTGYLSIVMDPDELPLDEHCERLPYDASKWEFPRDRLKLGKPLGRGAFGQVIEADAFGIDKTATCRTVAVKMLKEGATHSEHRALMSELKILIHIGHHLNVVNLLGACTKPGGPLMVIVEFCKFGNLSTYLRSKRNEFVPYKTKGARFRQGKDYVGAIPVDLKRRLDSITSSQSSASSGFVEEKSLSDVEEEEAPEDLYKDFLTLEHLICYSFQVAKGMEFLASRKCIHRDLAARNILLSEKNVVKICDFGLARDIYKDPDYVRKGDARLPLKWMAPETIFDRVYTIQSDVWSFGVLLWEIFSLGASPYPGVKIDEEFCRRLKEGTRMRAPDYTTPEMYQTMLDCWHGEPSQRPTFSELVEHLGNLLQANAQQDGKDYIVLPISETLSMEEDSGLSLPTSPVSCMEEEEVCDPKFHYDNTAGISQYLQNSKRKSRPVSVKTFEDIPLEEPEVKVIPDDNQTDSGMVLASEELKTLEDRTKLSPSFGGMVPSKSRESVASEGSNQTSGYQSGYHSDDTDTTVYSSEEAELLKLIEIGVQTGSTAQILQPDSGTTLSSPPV
Chain of Focal adhesion kinase 1 (Homo sapiens) (Q05397 2-1052 limits assumed): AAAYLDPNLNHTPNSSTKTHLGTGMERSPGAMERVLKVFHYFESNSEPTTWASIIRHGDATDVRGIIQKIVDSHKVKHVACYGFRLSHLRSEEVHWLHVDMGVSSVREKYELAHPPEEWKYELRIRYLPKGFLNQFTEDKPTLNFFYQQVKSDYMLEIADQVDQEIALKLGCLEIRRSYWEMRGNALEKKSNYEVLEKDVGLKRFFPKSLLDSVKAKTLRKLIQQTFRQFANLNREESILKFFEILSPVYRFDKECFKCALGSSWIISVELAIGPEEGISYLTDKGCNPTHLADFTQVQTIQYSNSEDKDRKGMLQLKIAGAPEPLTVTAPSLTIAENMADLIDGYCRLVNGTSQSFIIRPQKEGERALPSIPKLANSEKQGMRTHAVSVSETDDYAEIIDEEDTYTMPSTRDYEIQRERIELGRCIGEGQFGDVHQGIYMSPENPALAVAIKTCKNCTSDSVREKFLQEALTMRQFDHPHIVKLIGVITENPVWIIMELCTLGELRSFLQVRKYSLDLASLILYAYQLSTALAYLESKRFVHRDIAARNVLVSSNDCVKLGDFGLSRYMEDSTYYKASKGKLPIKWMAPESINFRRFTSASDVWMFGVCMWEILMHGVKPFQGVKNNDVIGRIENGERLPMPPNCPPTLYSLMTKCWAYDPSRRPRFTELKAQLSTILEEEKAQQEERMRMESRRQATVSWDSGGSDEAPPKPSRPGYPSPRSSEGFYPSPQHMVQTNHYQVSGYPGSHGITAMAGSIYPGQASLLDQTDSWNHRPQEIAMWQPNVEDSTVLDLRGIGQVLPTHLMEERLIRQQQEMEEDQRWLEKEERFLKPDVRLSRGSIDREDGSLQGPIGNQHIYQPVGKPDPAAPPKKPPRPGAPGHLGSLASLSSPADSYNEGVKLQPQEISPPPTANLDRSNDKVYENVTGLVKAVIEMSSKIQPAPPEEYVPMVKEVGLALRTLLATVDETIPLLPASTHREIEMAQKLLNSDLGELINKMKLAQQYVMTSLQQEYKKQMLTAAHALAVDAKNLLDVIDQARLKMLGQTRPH

SMILES | Activity [1] | Activity [2] | Activity [3] | Activity [4] | Activity [5] | Activity [6] | Activity [7] | Activity [8]
CC[C@H](Nc1ncnc2[nH]cnc12)c1nc2cccc(F)c2c(=O)n1-c1ccccc1 | 87.6% | 103% | 104% | 111% | 95.9% | 93.2% | 97.7% | 96.6%
C[C@H](Nc1ncnc2nc[nH]c12)c1cc2cccc(Cl)c2c(=O)n1-c1ccccc1 | 85.9% | 98.4% | 103% | 92.8% | 107% | 92.2% | 95.9% | 96.3%
CC(C)Oc1ccc(-c2nn([C@@H](C)c3oc4ccc(F)cc4c(=O)c3-c3cccc(F)c3)c3ncnc(N)c23)cc1F [UMBRALISIB] | 92.2% | 100% | 102% | 110% | 99.1% | 95.1% | 101% | 102%
